This is an account of results in patent US12612384B2, “Heterocyclic CYP4A inhibitor compounds and compositions thereof” (MBD CO., LTD., priority 2021, dated 2026).

A value given as a limit tells only on which side of the number the result lay.

The target in one experiment is T1, CYP4A (Homo sapiens, UniProt Q02928).
T1 construct: purchased; host or cells: bacterial membranes ('bactosome')
T1 sequence (Q02928 5-519): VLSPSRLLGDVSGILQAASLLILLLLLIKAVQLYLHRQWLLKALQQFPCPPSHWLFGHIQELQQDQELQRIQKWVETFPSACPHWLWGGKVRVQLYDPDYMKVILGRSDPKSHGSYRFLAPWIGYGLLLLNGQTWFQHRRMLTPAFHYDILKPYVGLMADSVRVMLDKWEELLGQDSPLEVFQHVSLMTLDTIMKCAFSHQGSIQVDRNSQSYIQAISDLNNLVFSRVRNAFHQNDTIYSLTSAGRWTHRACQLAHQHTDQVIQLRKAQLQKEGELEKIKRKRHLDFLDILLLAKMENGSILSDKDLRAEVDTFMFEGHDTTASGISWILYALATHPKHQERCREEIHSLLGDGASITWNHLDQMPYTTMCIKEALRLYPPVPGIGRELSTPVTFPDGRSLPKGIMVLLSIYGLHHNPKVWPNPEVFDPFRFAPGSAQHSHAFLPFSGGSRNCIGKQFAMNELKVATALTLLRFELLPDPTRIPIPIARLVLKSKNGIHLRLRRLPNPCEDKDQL
Nature of the experiment: CYP4A enzyme assay (luminescence, Luciferin-ME). As to conditions: Compound concentration 5 μM; 50%-70%; read-out: % Inhibition 50%-70%. It counts as biochemical. In outline:
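Compounds (5 μM) were preincubated 15 min at room temperature with CYP4A bactosomes in 100 mM KPO4, 0.1% BSA, 1 mM DTT. Reaction ran 30 min at room temperature after adding 5 mM Luciferin-ME and NADPH regeneration system. Luminescence after 15 min with detection reagent; inhibition judged by comparing well signals.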
Turning to `O=C(C1CN(S(=O)(=O)c2ccc(Br)cc2)C1)N1CCN(c2ccnc3cc(F)ccc23)CC1` [Example 68, (1-((4-bromophenyl)sulfonyl)azetidin-3-yl)(4-(7-fluoroquinolin-4-yl)piperazin-1-yl)methanone], the inhibition at 5 µM lay in the range of 50 to 70%.

Regarding `O=C(C1CCCN(S(=O)(=O)CCCO)C1)N1CCN(c2ccnc3ccccc23)CC1` (stereo not drawn) [Example 133, (1-((3-hydroxypropyl)sulfonyl)piperidin-3-yl)(4-(quinolin-4-yl)piperazin-1-yl)methanone], the inhibition at 5 µM fell in the range of 50 to 70%.

Still in this experiment, the particulars now being: Compound concentration 5 μM; 70%-90%; read-out: % Inhibition 70%-90%.
Regarding `CC(=O)Nc1ccc(C(=O)N2CCCC(C(=O)N3CCN(c4ccnc5ccccc45)CC3)C2)cc1` (stereo not drawn) [Example 111, N-(4-(3-(1-(quinolin-4-yl)piperazine-4-carbonyl)piperidine-1-carbonyl)phenyl)acetamide], the inhibition at 5 µM is 70 to 90%.

For `O=C(c1ccncc1)N1CCCC(C(=O)N2CCN(c3ccnc4cc(Cl)ccc34)CC2)C1` (stereo not drawn) [Example 87, (4-(7-chloroquinolin-4-yl)piperazin-1-yl)(1-(pyridine-4-ylcarbonyl)piperidin-3-yl)methanone], the inhibition at 5 µM was 70 to 90%.

With `COC(=O)c1sccc1S(=O)(=O)N1CCC(C(=O)N2CCN(c3ccnc4ccccc34)CC2)C1` (stereo not drawn) [Example 50, methyl 3-((3-(4-(quinolin-4-yl)piperazine-1-carbonyl)pyrrolidin-1-yl)sulfonyl)thiophene-2-carboxylate], the inhibition at 5 µM is 70 to 90%.

As for `O=C(C1CCCN(S(=O)(=O)C2CCCCC2)C1)N1CCN(c2ccnc3cc(F)ccc23)CC1` (stereo not drawn) [Example 117, (1-(cyclohexylsulfonyl)piperidin-3-yl)(4-(7-fluoroquinolin-4-yl)piperazin-1-yl)methanone], the inhibition at 5 µM lay within 70 to 90%.

On to `O=C(C1CCN(Cc2nnn[nH]2)C1)N1CCN(c2ccnc3cc(F)ccc23)CC1` (stereo not drawn) [Example 155, (1-((1H-tetrazol-5-yl)methyl)pyrrolidin-3-yl)(4-(7-fluoroquinolin-4-yl)piperazin-1-yl)methanone], for which the inhibition at 5 µM lay in the range of 70 to 90%.

In the case of `O=C([C@H]1CCN(S(=O)(=O)c2ncn[nH]2)C1)N1CCN(c2cc(C(F)(F)F)nc3ccccc23)CC1` [Example 167, (S)-(1-((1H-1,2,4-triazol-5-yl)sulfonyl)pyrrolidin-3-yl)(4-(2-(trifluoromethyl)quinolin-4-yl)piperazin-1-yl)methanone], the inhibition at 5 µM was 70 to 90%.

The experiment is the same for the next values; noted with them: Compound concentration 5 μM; Greater than 90%; read-out: % Inhibition Greater than 90%.
With `O=C([C@H]1CCN(S(=O)(=O)c2ncn[nH]2)C1)N1CCN(c2ccnc3cc(F)c(F)cc23)CC1` [Example 168, (S)-(1-((1H-1,2,4-triazol-5-yl)sulfonyl)pyrrolidin-3-yl)(4-(6,7-difluoroquinolin-4-yl)piperazin-1-yl)methanone], the inhibition at 5 µM is over 90%.

On to `O=C(C1CCN(S(=O)(=O)c2ccc(N3CCOCC3)cc2)C1)N1CCN(c2ccnc3ccccc23)CC1` (stereo not drawn) [Example 35, (1-((4-morpholinophenyl)sulfonyl)pyrrolidin-3-yl)(4-(quinolin-4-yl)piperazin-1-yl)methanone], for which the inhibition at 5 µM was over 90%.

With `O=C(C1CCN(S(=O)(=O)c2ncn[nH]2)C1)N1CCN(c2ccnc3ccccc23)CC1` (stereo not drawn) [Example 43, (1-((1H-1,2,4-triazol-5-yl)sulfonyl)pyrrolidin-3-yl)(4-(quinolin-4-yl)piperazin-1-yl)methanone], the inhibition at 5 µM is over 90%.

For `O=C(C1CCN(S(=O)(=O)c2ccc([N+](=O)[O-])cc2)CC1)N1CCN(c2ccnc3cc(F)ccc23)CC1` [Example 54, (4-(7-fluoroquinolin-4-yl)piperazin-1-yl)(1-((4-nitrophenyl)sulfonyl)piperidin-4-yl)methanone], the inhibition at 5 µM is over 90%.

`CN1CCN(c2ccc(S(=O)(=O)N3CCCC(C(=O)N4CCN(c5ccnc6cc(F)ccc56)CC4)C3)cn2)CC1` (stereo not drawn) [Example 62, (4-(7-fluoroquinolin-4-yl)piperazin-1-yl)(1-((6-(4-methylpiperazin-1-yl)pyridin-3-yl)sulfonyl)piperidin-3-yl)methanone]: the inhibition at 5 µM was over 90%.

On to `Cc1nc(S(=O)(=O)N2CC[C@H](C(=O)N3CCN(c4ccnc5cc(F)ccc45)CC3)C2)n[nH]1` [Example 166, (S)-(4-(7-fluoroquinolin-4-yl)piperazin-1-yl)(1-((5-methyl-1H-1,2,4-triazol-3-yl)sulfonyl)pyrrolidin-3-yl)methanone], for which the inhibition at 5 µM is over 90%.

Regarding `CC(=O)Nc1ccc(C(=O)N2CCCC(C(=O)N3CCN(c4ccnc5ccccc45)CC3)C2)cc1` (stereo not drawn) [Example 111, N-(4-(3-(1-(quinolin-4-yl)piperazine-4-carbonyl)piperidine-1-carbonyl)phenyl)acetamide], the inhibition at 5 µM was over 90%.

`Cn1ccnc1S(=O)(=O)N1CCCC(C(=O)N2CCN(c3ccnc4cc(F)ccc34)CC2)C1` (stereo not drawn) [Example 118, (4-(7-fluoroquinolin-4-yl)piperazin-1-yl)(1-(1-methyl-1H-imidazol-2-ylsulfonyl)piperidin-3-yl)methanone]: the inhibition at 5 µM was over 90%.

Turning to `O=C([C@H]1CCN(S(=O)(=O)c2nccn2CCO)C1)N1CCN(c2ccnc3ccc(F)cc23)CC1` [Example 160, (S)-(4-(6-fluoroquinolin-4-yl)piperazin-1-yl)(1-((1-(2-hydroxyethyl)-1H-imidazol-2-yl)sulfonyl)pyrrolidin-3-yl)methanone], the inhibition at 5 µM was over 90%.

Take `CC(=O)Nc1nc(C)c(S(=O)(=O)N2CC[C@H](C(=O)N3CCN(c4ccnc5ccccc45)CC3)C2)s1` [Example 49, (S)—N-(4-methyl-5-((3-(4-(quinolin-4-yl)piperazine-1-carbonyl)pyrrolidin-1-yl)sulfonyl)thiazol-2-yl)acetamide]: the inhibition at 5 µM is over 90%.

As to `O=C(C1CCN(S(=O)(=O)c2ccc(-c3ccncc3)cc2)CC1)N1CCN(c2ccnc3cc(F)ccc23)CC1` [Example 57, (4-(7-fluoroquinolin-4-yl)piperazin-1-yl)(1-((4-(pyridin-4-yl)phenyl)sulfonyl)piperidin-4-yl)methanone], the inhibition at 5 µM was found to be 0%.

Take `COCCn1ccnc1S(=O)(=O)N1CC[C@H](C(=O)N2CCN(c3ccnc4cc(F)ccc34)CC2)C1` [Example 149, (S)-(4-(7-fluoroquinolin-4-yl)piperazin-1-yl)(1-((1-(2-methoxyethyl)-1H-imidazol-2-yl)sulfonyl)pyrrolidin-3-yl)methanone]: the inhibition at 5 µM is over 90%.

In the case of `O=C(C1CCN(S(=O)(=O)c2cccc(F)n2)C1)N1CCN(c2ccnc3ccccc23)CC1` (stereo not drawn) [Example 52, (1-((6-fluoropyridin-2-yl)sulfonyl)pyrrolidin-3-yl)(4-(quinolin-4-yl)piperazin-1-yl)methanone], the inhibition at 5 µM is over 90%.

For `O=C([C@@H]1CCN(S(=O)(=O)c2ncc[nH]2)C1)N1CCN(c2ccnc3cc(F)ccc23)CC1` [Example 147, (R)-(1-((1H-imidazol-2-yl)sulfonyl)pyrrolidin-3-yl)(4-(7-fluoroquinolin-4-yl)piperazin-1-yl)methanone], the inhibition at 5 µM is over 90%.

As for `CC(=O)Nc1ccc(S(=O)(=O)N2CCCC(C(=O)N3CCN(c4ccnc5cc(F)ccc45)CC3)C2)cn1` (stereo not drawn) [Example 60, N-(5-((3-(4-(7-fluoroquinolin-4-yl)piperazine-1-carbonyl)piperidin-1-yl)sulfonyl)pyridin-2-yl)acetamide], the inhibition at 5 µM was over 90%.

As for `O=C(C1CN(S(=O)(=O)c2ncn[nH]2)C1)N1CCN(c2ccnc3cc(F)ccc23)CC1` [Example 137, (1-((1H-1,2,4-triazol-5-yl)sulfonyl)azetidin-3-yl)(4-(7-fluoroquinolin-4-yl)piperazin-1-yl)methanone], the inhibition at 5 µM was over 90%.

The inhibition is the percentage by which the read-out fell short of the control.
